Experimental data: US20160030364A1, “Therapeutic Compositions and Uses Thereof” (MANUKA HEALTH NEW ZEALAND LIMITED, priority 2013, published 2016)

Columns and labels:
[1] = system: human colon cancer cell line (HCT-116); test: MTT anti-proliferative assay, HCT-116 (Examples 3-12); format: cell-based
Method: (§1) 5-phenylpenta-2,4-dienoic acid was assessed for its ability to modulate the viability and proliferation of human colorectal adenocarcinoma cells (DLD-1); human colon cancer cell line (HCT-116); human gastric carcinoma cell line (NCI-N87); and human oesophageal squamous cell carcinoma cell line (KYSE-30) as assessed by the MTT assay. The positive control, 5-fluorouracil (5-FU) was included at three concentrations; in addition to an unsupplemented cell control as a negative control in the study. The 5-phenylpenta-2,4-dienoic acid was a genuine standard with chemical structure confirmed by NMR and MS.
(§2) The four human gastrointestinal carcinoma cell lines were revived from cryostorage and cultured in the presence of the test and reference samples. An MTT assay was then performed on the cultures to determine the effect of the samples on the cell viability and proliferation.
(§3) The test sample 5-phenylpenta-2,4-dienoic acid, and all other test samples in Examples 4-12 (except tectochrysln) were Initially dissolved in pure ethanol to a concentration of around 13.35 mg/ml. Tectochrysin was initially dissolved in triethylene glycol mono-methyl ether to the same concentration. Working solutions were then prepared from the stock solutions by dilution to 15% ethanol/Hanks Balanced Salt Solution (ETOH)/HBSS to a concentration of 2 mg/mL solids. In the assay the final concentration of the samples was 200 μg/ml with a final EtOH concentration of 1.5%. Final concentrations of test compounds and propolis prepared as above are as noted in Example 3.
(§4) • 1. Human colorectal adenocarcinoma cells (ATCC CCI-221, DLD-1)(ATCC, Bethesda, Md., USA) • 2. Human gastric carcinoma cells (ATCC CRL-5822, NCI-N87)(ATCC, Bethesda, Md., USA) • 3. Human oesophageal squamous cell carcinoma (ECACC, KYSE-30)(Sigma Aldrich, Auckland, NZ) • 4. Human colon carcinoma cells (ECACC HCT-116)(Sigma Aldrich, Auckland, NZ) • 5. Penicillin-streptomycin solution: 10000 units/ml penicillin, 10 mg/ml streptomycin in 0.9% NaCl (Sigma Cat #P-0781). Stored at −20° C. • 6. For DLD-1 cells: DMEM culture medium (Invitrogen Cat #12100-046). Stored at 4° C. • 7. For NCI-N87 cells: RPMI-1640 medium modified to contain 2 mM L-glutamine, 10 mM HEPES, 1 mM sodium pyruvate, 4500 mg/L glucose, and 1500 mg/L sodium bicarbonate (Sigma R6504). Stored at 4° C. • 8. For KYSE-410 cells: RPMI-1640 medium modified to contain 2 mM L-glutamine (Sigma R6504). Stored at 4° C. • 9. For HCT-116 cells: McCoy's 5A medium modified to contain 2 mM L-glutamine (Sigma M48792). Stored at 4° C. • 10. Trypsin-EDTA solution: 0.25% Trypsin/EDTA, Invitrogen Cat#15400054 (×10 in stock). • 11. Phosphate buffered saline (PBS) (Prepared by TBL). • 12. Hanks Balanced Salt Solution (HBSS). (GIBCO Cat No. 14185-052). Stored at 4° C. • 13. Foetal Bovine Serum (GIBCO Cat #10091-148). Stored at −20° C. • 14. MTT Reagent: 100 mg/vial, (SIGMA Cat. No. M-2128) dissolved in PBS at 10 mg/ml and stored at −20° C. 5 mg/ml MTT solution will be prepared in PBS and stored at 4° C. as working solution. • 15. MTT lysis buffer: 10% sodium dodecyl sulphate (SDS)/45% Dimethyl Formamide (20 g SDS will be dissolved in 100 ml of double-distilled water (DDW), and 90 ml of Dimethyl Formamide will be added to the SDS solution). The pH will be adjusted to 4.7 by glacial acetic acid, and DDW added up to a final volume of 200 ml. • 16. 5-Fluorouracil (5-FU), (Sigma Cat. No. F-6627). Three working solutions will be prepared at 19.5 μg/ml. 6.5 μg/ml and 1.95 μg/ml dissolved in 15% Ethanol/HBSS. Final concentrations will be 1.95 μg/ml (15 μM), 0.65 μg/ml (5 μM) and 0.195 μg/ml (1.5 μM).
(§5) The medium for the propagation of the each of the cells lines is given above. Each medium was prepared following the ATCC/ECACC instructions and supplemented with penicillin-streptomycin solution (10 ml per litre). FBS (at 10%) was added just before use.
• 1. […]

[2] = system: human colorectal adenocarcinoma cells (DLD-1); test: MTT anti-proliferative assay, DLD-1 (Examples 3-12); format: cell-based; details: for % inhibition / % stim. / Mean OD (570 nm) / inhibition at 200 µg/mL: 200 μg/ml; for % inhibition / % stim. / Mean OD (570 nm): 48 hours
Method: as §1, §2, §3, §4, §5
• 1. […]

[3] = Homo sapiens, HCT-116, 48 h, 200 μg/ml

SMILES	inhibition at 0.195 µg/mL ([1]; Homo sapiens, HCT-116, 48 h, 0.195 μg/ml) [%]	inhibition at 0.65 µg/mL ([1]; Homo sapiens, HCT-116, 48 h, 0.65 μg/ml) [%]	inhibition at 1.95 µg/mL ([1]; Homo sapiens, HCT-116, 48 h, 1.95 μg/ml) [%]	inhibition at 0.195 µg/mL ([2]; Homo sapiens, DLD-1, 48 h, 0.195 μg/ml) [%]	inhibition at 0.65 µg/mL ([2]; Homo sapiens, DLD-1, 48 h, 0.65 μg/ml) [%]	inhibition at 1.95 µg/mL ([2]; Homo sapiens, DLD-1, 48 h, 1.95 μg/ml) [%]	% stim. ([1]; 200 μg/ml, 48 hours) [%]	Mean OD (570 nm) ([1]; 200 μg/ml, 48 hours)	inhibition at 200 µg/mL [1, 3] [%]	% inhibition [2] [%]	% stim. [2] [%]	Mean OD (570 nm) [2]	inhibition at 200 µg/mL ([2]; Homo sapiens, DLD-1, 48 h) [%]	% inhibition ([1]; 200 μg/ml, 48 hours) [%]
O=c1[nH]cc(F)c(=O)[nH]1 [Sample 5-FU, 5-fluorouracil, reference compound]	33.9	54	57.3	26.5	37.3	41.6	–	–	–	–	–	–	–	–
O=C(O)/C=C/c1ccc(O)cc1 [p-coumaric acid, para-coumaric acid, reference compound]	–	–	–	–	–	–	2.6	0.5216	0	14.34	0	0.3531	14.3	–
COc1cc(O)c2c(=O)cc(-c3ccccc3)oc2c1 [Tectochrysin, tectochrysin]	–	–	–	–	–	–	–	–	–	92.8	–	–	–	90.1
O=C1C[C@@H](c2ccccc2)Oc2cc(O)cc(O)c21 [Pinocembrin, reference compound]	–	–	–	–	–	–	0	0.0045	99.1	–	0	0.0341	91.7	–
